Data published in patent US10221163B2 (priority 2015, dated 2019).
Where two headings read alike, the source gives them in different places.

Key:
[1] = target: IMP-1 (Serratia marcescens, UniProt P52699); assay: biochemical; assay type: biochemical; conditions: fluorescence assay, CCF2-FA substrate, 2 pM enzyme, 2 hours at 25° C.; read-out: IMP-1 IC50
Outline: (§1)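 Semi-log dose-response curves, fitted with a 4-parameter model, gave IC50s. The underlying signal was CCF2-FA fluorescence following 2 hours at 25° C with enzyme, substrate and inhibitor combined.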

[2] = target: NDM-1 (Klebsiella pneumoniae, UniProt C7C422); assay: biochemical; assay type: biochemical; conditions: fluorescence assay, CCF2-FA substrate, 1 pM enzyme, 2 hours at 25° C.; read-out: NDM-1 IC50
Outline: as §1

[3] = target: VIM-1 (Pseudomonas aeruginosa (strain ATCC 15692 / DSM 22644 / CIP 104116 / JCM 14847 / LMG 12228 / 1C / PRS 101 / PAO1), UniProt A0A0F7KYQ8); assay: biochemical; conditions: CCF2-FA substrate, 30 pM enzyme, 2 hours at 25° C.
Outline: as §1

[4] = test system: Escherichia coli expressing NDM-1 (CLB30005, CLB30016); assay type: cell-based; conditions: with imipenem 1 μg/ml; for Escherichia coli MITC95: NDM-1 strain, 95% inhibition of growth; for Escherichia coli expressing NDM-1 (CLB30016) MITC95: 95% inhibition of bacterial growth
Outline: (§2)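 Clinical strains grown overnight on blood agar at 35°C, colonies suspended in saline, diluted 1:100 into 1.1×CAMHB. Test compound titrated with imipenem at 1 μg/ml; incubated 22–24 h at 35°C, growth read by absorbance.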

[5] = test system: Klebsiella pneumoniae expressing VIM-1 (IHMA599644); assay type: cell-based; conditions: for Klebsiella pneumoniae MITC95: VIM-1 strain IHMA599644, with imipenem 1 μg/ml, 95% inhibition of growth; for Klebsiella pneumoniae expressing VIM-1 (IHMA599644) MITC95: with imipenem 1 μg/ml, 95% inhibition of bacterial growth
Outline: as §2

[6] = test system: Serratia marcescens expressing IMP-1 (CL5741); assay type: cell-based; conditions: for Serratia marcescens MITC95: IMP-1 strain CL5741, with imipenem 1 μg/ml, 95% inhibition of growth; for Serratia marcescens expressing IMP-1 (CL5741) MITC95: with imipenem 1 μg/ml, 95% inhibition of bacterial growth
Outline: as §2

[7] = test system: Pseudomonas aeruginosa efflux+ (MB9798), IMP-1; assay type: cell-based; parameters: Concentration of metallo-β-lactamase inhibitor which restores susceptibility of efflux + (MB9798) strain to imipenem: unit not given here; conditions: C, D serine β-lactamase inhibitor closely related to relebactam; for P. aeruginosa expressing IMP-1, efflux + (MB9798) MITC95: concentration restoring susceptibility to imipenem at 2 μg/mL in the presence of a class A
Outline: (§3)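 P. aeruginosa PAO1-derived IMP-1 strains, efflux+ MB9798 and efflux− MB9799, tested by standard microbroth MIC with imipenem and/or ceftazidime fixed, usually at CLSI breakpoint, plus fixed class A/C β-lactamase inhibitor against AmpC. Inhibitor titrated; concentration restoring susceptibility recorded; MB9798/MB9799 fold difference indicates efflux.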

[8] = test system: Pseudomonas aeruginosa efflux− (MB9799), IMP-1; assay type: cell-based; conditions: C, D serine β-lactamase inhibitor closely related to relebactam; for P. aeruginosa expressing IMP-1, efflux − (MB9799) MITC95: concentration restoring susceptibility to imipenem at 2 μg/mL in the presence of a class A
Outline: as §3

[9] = test system: Pseudomonas aeruginosa MB9798 vs MB9799
Outline: as §3

[10] = fluorescence assay, read-out: VIM-1 IC50
[11] = ratio MITC95 PA_9798/MITC95 PA_9799

Sequence of NDM-1 (C7C422 whole entry, looked up, species assumed): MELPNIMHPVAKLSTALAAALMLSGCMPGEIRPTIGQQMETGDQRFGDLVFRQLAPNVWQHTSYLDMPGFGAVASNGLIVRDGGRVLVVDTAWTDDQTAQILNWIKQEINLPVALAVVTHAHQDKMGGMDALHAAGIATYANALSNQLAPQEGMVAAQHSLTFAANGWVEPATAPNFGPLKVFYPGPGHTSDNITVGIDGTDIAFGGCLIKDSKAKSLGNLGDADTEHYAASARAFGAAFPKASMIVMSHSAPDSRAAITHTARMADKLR
Sequence of IMP-1 (P52699 whole entry, looked up, species assumed): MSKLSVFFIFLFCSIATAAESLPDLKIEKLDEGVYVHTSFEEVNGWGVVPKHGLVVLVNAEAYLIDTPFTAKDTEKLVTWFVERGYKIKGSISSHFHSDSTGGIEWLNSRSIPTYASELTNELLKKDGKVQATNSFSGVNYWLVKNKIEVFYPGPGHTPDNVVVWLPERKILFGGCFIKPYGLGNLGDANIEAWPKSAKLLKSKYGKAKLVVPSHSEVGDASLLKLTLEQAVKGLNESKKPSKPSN

## Nc1ccc2cccc(-c3ccc(S(=O)(=O)N[C@@H]4CCNC4)c(S(N)(=O)=O)c3-c3nn[nH]n3)c2n1 [Example 286, (R)-4-(2-aminoquinolin-8-yl)-N1-(pyrrolidin-3-yl)-3-(2H-tetrazol-5-yl)benzene-1,2-disulfonamide]
[1]
  IC50: 0.122 nM
[2]
  IC50: 0.0207 nM
[3]; [10]
  IC50: 0.0877 nM
[4]
  Escherichia coli MITC95: 1.953 µM
[5]
  Klebsiella pneumoniae MITC95: 1.172 µM
[6]
  Serratia marcescens MITC95: 0.7813 µM
[7]
  P. aeruginosa expressing IMP-1, efflux + (MB9798) MITC95: 0.9766 µM
[8]
  P. aeruginosa expressing IMP-1, efflux − (MB9799) MITC95: 0.7813 µM
[9]; [11]
  Efflux ratio: 1.25

## N[C@H](CO)c1nc2c(-c3ccc(S(=O)(=O)N[C@H]4CNC[C@H]4N)c(S(N)(=O)=O)c3-c3nn[nH]n3)cccc2[nH]1 [Example 323, 4-(2-((S)-1-amino-2-hydroxyethyl)-1H-benzo[d]imidazol-4-yl)-N1-((3S,4R)-4-aminopyrrolidin-3-yl)-3-(2H-tetrazol-5-yl)benzene-1,2-disulfonamide]
[1]
  IC50: 3.39 nM
[2]
  IC50: 0.219 nM
[3]; VIM-1 IC50, fluorescence assay
  IC50: 0.321 nM
[4]
  Escherichia coli MITC95: 1.563 µM
[5]
  Klebsiella pneumoniae MITC95: 3.125 µM
[6]
  Serratia marcescens MITC95: 3.125 µM
[7]
  P. aeruginosa expressing IMP-1, efflux + (MB9798) MITC95: 1.563 µM
[8]
  P. aeruginosa expressing IMP-1, efflux − (MB9799) MITC95: 1.563 µM
[9]; [11]
  Efflux ratio: 1.00

## Nc1nc2c(-c3ccc(S(=O)(=O)N[C@@H]4C[C@H]4N)c(S(N)(=O)=O)c3-c3nnn[nH]3)cccc2[nH]1 [Example 448, 4-(2-amino-1H-benzo[d]imidazol-4-yl)-N^1-((1R,2R)-2-aminocyclopropyl)-3-(1H-tetrazol-5-yl)benzene-1,2-disulfonamide]
[1]
  IC50: 0.988 nM
[2]
  IC50: 0.151 nM
[3]; [10]
  IC50: 0.557 nM
[4]
  Escherichia coli MITC95: 0.7813 µM
[5]
  Klebsiella pneumoniae MITC95: 6.25 µM
[6]
  Serratia marcescens MITC95: 1.563 µM
[7]; efflux+ MB9798, imipenem at 2 μg/mL, in the presence of a class A
  Concentration of metallo-β-lactamase inhibitor which restores susceptibility of efflux + (MB9798) strain to imipenem: 1.563
[8]; efflux− MB9799, imipenem at 2 μg/mL, in the presence of a class A
  Concentration of metallo-β-lactamase inhibitor which restores susceptibility of efflux − (MB9799) strain to imipenem: 3.125
[9]; fold difference between efflux+ (MB9798) and efflux− (MB9799) strains, imipenem at 2 μg/mL
  Efflux ratio: 0.50

## Nc1nc2c(-c3ccc(S(=O)(=O)NC4CCc5nccn5C4)c(S(N)(=O)=O)c3-c3nnn[nH]3)cccc2s1 (stereo not drawn) [Example 35, 4-(2-amino-1,3-benzothiazol-4-yl)-N1-(5,6,7,8-tetrahydroimidazo[1,2-a]pyridin-6-yl)-3-(1H-tetrazol-5-yl)benzene-1,2-disulfonamide]
[1]
  IC50: 0.349 nM
[2]
  IC50: 0.0508 nM
[3]; [10]
  IC50: 0.256 nM
[4]
  Escherichia coli expressing NDM-1 (CLB30016) MITC95: 12.5 µM
[5]
  Klebsiella pneumoniae expressing VIM-1 (IHMA599644) MITC95: 12.5 µM
[6]
  Serratia marcescens expressing IMP-1 (CL5741) MITC95: 3.125 µM
[7]
  P. aeruginosa expressing IMP-1, efflux + (MB9798) MITC95: 6.25 µM
[8]
  P. aeruginosa expressing IMP-1, efflux − (MB9799) MITC95: 3.125 µM
[9]; [11]
  Efflux ratio: 2.00

## Nc1nc2c(-c3ccc(S(=O)(=O)N[C@@H]4CN[C@H](CO)C4)c(S(N)(=O)=O)c3-c3nnn[nH]3)cccc2[nH]1 [Example 175, 4-(2-amino-1H-benzo[d]imidazol-4-yl)-N^1-((3S,5S)-5-(hydroxymethyl)pyrrolidin-3-yl)-3-(1H-tetrazol-5-yl)benzene-1,2-disulfonamide]
[1]
  IC50: 1 nM
[2]
  IC50: 0.127 nM
[3]; VIM-1 IC50, fluorescence assay
  IC50: 0.334 nM
[4]
  Escherichia coli expressing NDM-1 (CLB30016) MITC95: 0.7813 µM
[5]
  Klebsiella pneumoniae expressing VIM-1 (IHMA599644) MITC95: 3.125 µM
[6]
  Serratia marcescens expressing IMP-1 (CL5741) MITC95: 1.563 µM
[7]
  P. aeruginosa expressing IMP-1, efflux + (MB9798) MITC95: 0.7813 µM
[8]
  P. aeruginosa expressing IMP-1, efflux − (MB9799) MITC95: 1.563 µM
[9]; [11]
  Efflux ratio: 0.50
